In patent US5278167A, “6-pyridyl substituted pyrimidine derivatives” (Brown University Research Foundation, priority 1992, dated 1994):
pEC50: −log10 of the molar value. “Also recorded” adds a separate entry of the source. Like-named read-outs stand apart in the source and are kept apart here.

Key:
HIV-1 = assay: anti-HIV activity: protection of T4 lymphocytes from HIV-1 cytolysis (XTT); type: cell-based; conditions: HIV-1 in CEM cells
Procedure: (§1) The procedure used to test the 6-pyridyl substituted pyrimidine derivatives activity against HIV is designed to detect agents acting at any stage of the virus reproductive cycle (see Weislow et al. (1989) J. Nat'l. Cancer Inst. 81:577-586, incorporated by reference herein). The assay basically involves the killing of T4 lymphocytes by HIV. Small amounts of HIV are added to cells, and a complete cycle of virus reproduction is necessary to obtain the required cell killing. Agents that interact virions, cells, or virus gene-products to interfere with viral activities will protect cells from cytolysis. All tests are compared with at least one positive (e.g., AZT-treated) control done at the same time under identical conditions.
(§2) 1. The candidate pyrimidine derivative is dissolved in dimethyl sulfoxide then diluted 1:100 in cell culture medium before preparing serial half-log10 dilutions. T4 lymphocytes (CEM cell line) are added and after a brief interval HIV-1 is added, resulting in a 1:200 final dilution of the compound. […]
(§3) 4. Individual wells are analyzed spectrophotomically to quantitate formazan production, and in addition are viewed microscopically for detection of viable cells and confirmation of protective activity. […]
(§4) The anti-HIV activity profile of 1-benzyloxymethyl-5-ethyl-6-(α-pyridylthio) uracil determined by this procedure has been graphically represented in FIG. 1.

[1] = toxicity to T4 lymphocytes (CEM cell line), uninfected toxicity control (XTT); type: cell-based; conditions: human, CEM cells, 6 days, read-out: toxic concentration (IC50)
Procedure: as §1, §2, §3, §4

[2] = tested on: HCT-8.clone 10 (AZT resistant) cells; assay: growth inhibition of HCT-8.clone 10 (AZT resistant) cells; type: cell-based, human; conditions: for inhibition at 10 µM / inhibition at 1 µM / inhibition at 100 µM: Homo sapiens, 72 hours, read-out: Percent Growth Inhibition; for inhibition at 1 µM: 5-FUra 1 micromolar; for inhibition at 100 µM: 5-FUra 100 micromolar
Procedure: (§5) In general, the experiments designed to assess the […] activity of 5-fluoropyrimidines in conjunction with the 6-pyridyl substituted pyrimidine are carried out as follows.
(§6) Screw cap plastic tissue culture tubes are seeded with identical numbers of cultured tumor cells (approximately 2×10^4 cells/tube) in 4.8 mL RPMI-1640 containing 10% Fetal Bovine Serum (FBS) and 2% HEPES (IM buffer solution). The cultures are incubated overnight, on their sides, at 37° C. in a nonhumidified […] incubator.
(§7) The following day, the number of cells in duplicate tubes is determined. The media is decanted, the cells rinsed with Hanks' Balanced Salt Solution (calcium, magnesium and bicarbonate free) and replaced with 4.0 mL of trypsin-EDTA solution. The tubes are incubated at 37° C. for 5 minutes, then shaken to loosen the cells from the tube walls. To each tube is then added 1.0 mL of FBS and medium (50:50) in order to stop the action of the trypsin. Clumps of cells are broken apart by forceful repipetting with a 10 mL glass pipette. The resulting single cell suspension is counted using trypan blue exclusion and the total number of cells per tube recorded as the starting cell number.
(§8) Cells suspended in RPMI/FBS are preincubated with or without BPTU for 30 minutes, followed by addition of a given dose of 5-FUra. Tables 1 and 2 present the cell growth inhibition after 72 hours incubation with varying concentrations of 5-FUra, in the presence or absence of preincubation with 10 micromolar BPTU.
(§9) Similarly, Table 2 reports the effects of 5-FUra used in conjunction with BPTU on ™HCT-8 cells.

HCT-8 cells = assay: growth inhibition of HCT-8 cells; type: cell-based, human; conditions: for inhibition at 10 µM / inhibition at 1 µM / inhibition at 3 µM: Homo sapiens, 72 hours; for inhibition at 1 µM: 5-FUra 1 micromolar; for inhibition at 3 µM: 5-FUra 3 micromolar
Procedure: as §5, §6, §7, §8, §9

[3] = with BPTU (10 micromolar) preincubated 30 minutes
[4] = with BPTU (10 micromolar) preincubated 30 minutes, read-out: Percent Growth Inhibition
[5] = without BPTU, read-out: Percent Growth Inhibition

CCc1c(Sc2ccccn2)n(COCc2ccccc2)c(=O)[nH]c1=O [BPTU, 1-benzyloxymethyl-5-ethyl-6-(α-pyridylthio) uracil]
therapeutic index (TI50) (HIV-1; 8640 min): > 1100 M | pEC50 (HIV-1; Human immunodeficiency virus 1, CCRF-CEM, 144 h, 6 days, XTT, read-out: effective concentration (EC50)): 9.05 | CC50 at 144 h [1]: > 980 nM | inhibition at 10 µM ([2]; 5-FUra 0, with BPTU (10 micromolar) alone): 0% | growth inhibitory activity alone ([2]; alone at 10 micromolar, HCT-8.clone 10): not shown to be growth inhibitory | inhibition of cell growth in combination with 5-FUra ([2]; combination with 5-FUra vs 5-FUra alone, HCT-8.clone 10): more effectively than 5FUra alone | inhibition at 10 µM (HCT-8 cells; 5-FUra 0, with BPTU (10 micromolar) alone, read-out: Percent Growth Inhibition): 0% | growth inhibitory activity alone (HCT-8 cells; alone at 10 micromolar): not shown to be growth inhibitory | inhibition of cell growth in combination with 5-FUra (HCT-8 cells; combination with 5-FUra vs 5-FUra alone): more effectively than 5-FUra alone; also recorded: more effectively than 5FUra alone

O=c1[nH]cc(F)c(=O)[nH]1 [Example 5-FUra, 5-fluorouracil]
inhibition at 1 µM [2, 3]: 23% | inhibition at 1 µM ([2]; without BPTU): 0% | inhibition at 10 µM ([2]; 5-FUra 10 micromolar, with BPTU (10 micromolar) preincubated 30 minutes, P<0.01): 74% | inhibition at 10 µM ([2]; 5-FUra 10 micromolar, without BPTU): 29% | inhibition at 100 µM [2, 3]: > 100% | inhibition at 100 µM ([2]; without BPTU): 56% | inhibition at 1 µM (HCT-8 cells; [4]): 33% | inhibition at 1 µM (HCT-8 cells; [5]): 0% | inhibition at 3 µM (HCT-8 cells; [4]): 55% | inhibition at 3 µM (HCT-8 cells; [5]): 9% | inhibition at 10 µM (HCT-8 cells; 5-FUra 10 micromolar, with BPTU (10 micromolar) preincubated 30 minutes, P<0.01, read-out: Percent Growth Inhibition): 80% | inhibition at 10 µM (HCT-8 cells; 5-FUra 10 micromolar, without BPTU, read-out: Percent Growth Inhibition): 33%
